Test results as given in patent publication US7560569B2, “Bicycloamide derivative” (Kyorin Pharmaceutical Co., Ltd, priority 2004, dated 2009).

Tests used:
[1] = molecular target: T1, plasma dipeptidylpeptidase IV (Mus musculus, UniProt P28843); experiment: Inhibition of plasma dipeptidylpeptidase IV activity in mice by oral administration; format: in vivo; settings: male ICR mice, 0.1 mg/mL at 10 mL/kg, plasma 30 minutes after administration vs before
T1 construct: The blood samples were centrifuged at 6000 rpm for 2 minutes to separate plasma; tissue Charles River Laboratories Japan; host or cells: plasma of male ICR mice
T1 sequence (P28843 37-760 limits assumed): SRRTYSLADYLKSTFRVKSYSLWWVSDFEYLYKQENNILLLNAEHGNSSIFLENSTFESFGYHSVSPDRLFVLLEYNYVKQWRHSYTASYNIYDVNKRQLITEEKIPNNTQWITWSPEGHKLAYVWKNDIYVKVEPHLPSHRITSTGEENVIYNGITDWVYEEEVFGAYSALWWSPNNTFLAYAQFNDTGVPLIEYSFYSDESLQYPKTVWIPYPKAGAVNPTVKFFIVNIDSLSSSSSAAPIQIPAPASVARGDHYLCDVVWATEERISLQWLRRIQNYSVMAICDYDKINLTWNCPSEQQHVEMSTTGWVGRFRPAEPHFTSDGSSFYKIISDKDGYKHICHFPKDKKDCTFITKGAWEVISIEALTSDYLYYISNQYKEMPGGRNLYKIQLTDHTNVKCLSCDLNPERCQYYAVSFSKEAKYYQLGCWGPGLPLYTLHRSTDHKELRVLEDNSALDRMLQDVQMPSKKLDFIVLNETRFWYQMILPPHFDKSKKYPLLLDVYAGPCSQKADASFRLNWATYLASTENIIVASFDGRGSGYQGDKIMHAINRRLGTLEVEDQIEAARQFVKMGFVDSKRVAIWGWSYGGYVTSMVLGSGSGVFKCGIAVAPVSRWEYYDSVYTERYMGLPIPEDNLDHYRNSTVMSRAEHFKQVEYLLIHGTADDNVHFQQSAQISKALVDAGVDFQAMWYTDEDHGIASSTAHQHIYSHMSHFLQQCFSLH
Experimental: Each compound was suspended in 0.3% sodium carboxymethylcellulose to a concentration of 0.1 mg/mL. The preparation was orally administered to 8-week old male ICR mice (Charles River Laboratories Japan) at a dose of 10 mL/kg. Using an EDTA 2K-treated capillary tube, blood samples were collected from the tail vein before administration and 30 minutes after administration. The blood samples were centrifuged at 6000 rpm for 2 minutes to separate plasma. […] The inhibition was determined from the decrease in the enzymatic activity from the initial activity (% inhibition={(activity before administration−activity after administration)/(activity before administration)}×100).

[2] = molecular target: plasma dipeptidylpeptidase IV (UniProt P27487); experiment: In vitro dipeptidylpeptidase IV inhibition (H-Gly-Pro-AMC hydrolysis, fluorometry); format: biochemical; settings: plasma diluted 8-fold, H-Gly-Pro-AMC.HBr substrate, room temperature 20 minutes
Experimental: The concentration of free 7-amino-4-methyl-coumarin (AMC) generated by hydrolysis of H-Gly-Pro-AMC.HBr substrate by plasma dipeptidylpeptidase IV was determined by fluorometry.
A 20 μL of buffer (25 mmol/L hepes, 140 mmol/L sodium chloride, 1% bovine serum albumin, 80 mmol/L magnesium chloride hexahydrate, pH 7.4) containing each compound was added to 20 μL of plasma diluted 8-fold with saline in a well of a 96-well flat bottom plate. The plate was left at room temperature for 5 minutes and 10 μL of 0.1 mmol/L H-Gly-Pro-AMC.HBr solution was added to each well to initiate the reaction. […] Using a fluorescent plate reader, the free AMC concentration was determined by exciting the samples at 355 nm and measuring the fluorescence intensity at 460 nm.

Structure (SMILES) | inhibition at 100 µg/mL (stock) [1] [%] | IC50 [2] [nM]
N#C[C@@H]1C[C@H](F)CN1C(=O)CNC12CCC(C(N)=O)(CC1)CC2 [Example 1, (2S,4S)-1-[[(4-carbamoylbicyclo[2.2.2]oct-1-yl)amino]acetyl]-4-fluoropyrrolidine-2-carbonitrile] | 71 | 0.89
CN1CCN(C(=O)C23CCC(NCC(=O)N4C[C@@H](F)C[C@H]4C#N)(CC2)CC3)CC1 [Example 8, (2S,4S)-4-fluoro-1-[[N-[4-(4-methylpiperazin-1-yl)carbonylbicyclo[2.2.2]oct-1-yl]amino]acetyl]pyrrolidine-2-carbonitrile] |  | 0.83
CN(C)C(=O)C12CCC(NCC(=O)N3C[C@@H](F)C[C@H]3C#N)(CC1)CC2 [Example 9, (2S,4S)-1-[[N-[4-(dimethylamino)carbonylbicyclo[2.2.2]oct-1-yl]amino]acetyl]-4-fluoropyrrolidine-2-carbonitrile] | 87 | 
N#C[C@@H]1C[C@H](F)CN1C(=O)CNC12CCC(C(=O)N3CCC3)(CC1)CC2 [Example 15, (2S,4S)-1-[[[4-(azetidin-1-yl)carbonylbicyclo[2.2.2]oct-1-yl]amino]acetyl]-4-fluoropyrrolidine-2-carbonitrile] | 66 | 
N#C[C@@H]1C[C@H](F)CN1C(=O)CNC12CCC(C(=O)N3CC[C@@H](F)C3)(CC1)CC2 [Example 16, (2S,4S,3′ R)-4-fluoro-1-[[N-[4-(3-fluoropyrrolidin-1-yl)carbonylbicyclo[2.2.2]oct-1-yl]amino]acetyl]pyrrolidine-2-carbonitrile] |  | 0.082

Second part, the compound after the results:

inhibition at 100 µg/mL (stock) [1] [%] | IC50 [2] [nM] | Structure (SMILES)
77 |  | CC(C)(C)NC(=O)C12CCC(NCC(=O)N3C[C@@H](F)C[C@H]3C#N)(CC1)CC2 [Example 30, (2S,4S)-1-[[N-[4-(N-2,2-dimethylethylamino)carbonylbicyclo[2.2.2]oct-1-yl]amino]acetyl]-4-fluoropyrrolidine-2-carbonitrile]
70 | 0.057 | C=CCNC(=O)C12CCC(NCC(=O)N3C[C@@H](F)C[C@H]3C#N)(CC1)CC2 [Example 52, (2S,4S)-4-fluoro-1-[[N-[4-[N-(2-propenyl)amino]carbonylbicyclo[2.2.2]oct-1-yl]amino]acetyl]pyrrolidine-2-carbonitrile]
